In patent publication US9879036B2, “Mitochondrial aldehyde dehydrogenase-2 binding compounds and methods of use thereof” (Aviv Therapeutics, Inc., priority 2014, dated 2018) one finds activity data, which are given here for 62 compounds.

This experiment concerns the target T1, ALDH2 (Homo sapiens, UniProt P05091).
T1 construct: His-tag (N); made in house; host or cells: E. coli BL21
T1 sequence (P05091 18-517): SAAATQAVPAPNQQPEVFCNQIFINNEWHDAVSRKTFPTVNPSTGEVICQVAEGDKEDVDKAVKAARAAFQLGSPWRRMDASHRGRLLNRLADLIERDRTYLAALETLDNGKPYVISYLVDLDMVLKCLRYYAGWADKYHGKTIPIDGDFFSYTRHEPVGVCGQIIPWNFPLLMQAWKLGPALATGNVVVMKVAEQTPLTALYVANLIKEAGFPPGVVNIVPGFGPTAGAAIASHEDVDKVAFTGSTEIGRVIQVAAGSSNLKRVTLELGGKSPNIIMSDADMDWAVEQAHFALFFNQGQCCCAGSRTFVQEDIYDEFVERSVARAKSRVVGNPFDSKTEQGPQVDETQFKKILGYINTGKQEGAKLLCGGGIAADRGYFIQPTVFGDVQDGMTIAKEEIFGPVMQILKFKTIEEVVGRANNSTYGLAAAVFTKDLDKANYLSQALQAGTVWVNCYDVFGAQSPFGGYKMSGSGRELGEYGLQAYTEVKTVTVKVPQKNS
Briefly: ALDH2 activity with 20 μM of the compound (Table 3). The note with it: 20 μM compound. Type of experiment: biochemical. Here is the method:
ALDH2 catalyzes the oxidative reaction of substrate acetaldehyde to acetic acid using NAD^+ as a cofactor. Enzymatic activity, or catalytic rate, of aldehyde dehydrogenase (ALDH2) are measured spectrophotometrically at UV wavelength λ340 nm by the accumulation of reduced product NADH derived from NAD^+. Absorbance at λ340 nm is quantitatively proportional to the amount of NADH being produced over time (6.22 O.D. unit=1 mmol of NADH, measured in a 1-cm width standard cuvette). This method is well-established in the literature [e.g. Rex et al., Alcohol Clin. Exp. Res. 9, 147 (1985)].
ALDH2 catalyzes the oxidative reaction of substrate acetaldehyde to acetic acid using NAD^+ as a cofactor. Enzymatic activity, or catalytic rate, of aldehyde dehydrogenase (ALDH2) can be measured spectrophotometrically at UV wavelength λ340 nm by the accumulation of reduced product NADH derived from NAD^+. Absorbance at λ340 nm is quantitatively proportional to the amount of NADH being produced over time (6.22 O.D. unit=1 mmol of NADH, measured in a 1-cm width standard cuvette). This method is well-established in the literature [e.g. Rex et al., Alcohol Clin. Exp. Res. 9, 147 (1985)].
ALDH2 catalyzes the oxidative reaction of substrate acetaldehyde to acetic acid using NAD^+ as a cofactor. Enzymatic activity, or catalytic rate, of aldehyde dehydrogenase (ALDH2) can be measured spectrophotometrically at UV wavelength λ340 nm by the accumulation of reduced product NADH derived from NAD^+. Because compounds of formula (I) are considered to be agonists or “activators” of ALDH2 the enzymatic activity measured will exceed 100% of the baseline enzymatic activity of the enzyme in its normal activation state. As the concentration of the compounds of formula (I) decreases from 20 micromolar to 0.16 micromolar in the presence of ALDH, a decrease in the activation of enzymatic activity is observed for the wild-type ALDH2*1/*1 and the heterozygous form ALDH2*1/*2.
As to `COc1ccc(CNC(=O)c2cc(-c3c[nH]nc3CO)ccc2OCC2CC2)cc1F` [AC30], the activity at 20 µM is over 250%. The result for `COc1ccc(CNC(=O)c2cc(-c3cnn(C)c3CO)ccc2OCC2CC2)cc1F` [AC33] reads over 250%. The result for `COc1ccc(CNC(=O)c2cc(-c3nc[nH]c3CO)ccc2OCC2CC2)cc1F` [AC38] reads 150 to 250%; that for `COc1ccc(CNC(=O)c2cc(-c3cn(C)nc3CO)ccc2OCC2CC2)cc1F` [AC39], 150 to 250%. As for `COc1ccc(CNC(=O)c2cc(-c3n[nH]cc3CO)cnc2OCC2CC2)cc1F` [AC40], the figure is 100 to 150%. Turning to `COc1ccc(CNC(=O)c2cc(-c3nocc3CO)cnc2OCC2CC2)cc1F` [AC41], the activity at 20 µM fell in the range of 100 to 150%. As for `COc1ccc(CNC(=O)c2cc(-c3ncccc3CO)ccc2NCC2CC2)cc1F` [AC42], the figure is 150 to 250%. In the case of `O=C(NCc1ccc2c(c1)OCO2)c1cc(-c2ncccc2CO)ccc1OCC1CC1` [AC43], the activity at 20 µM lay within 150 to 250%. As for `COc1ccc(CNC(=O)c2cc(-c3ncccc3CO)ccc2OCC2CC2)cc1OC` [AC44], the figure is 150 to 250%; as for `O=C(NCc1cc(Cl)c2c(c1)OCO2)c1cc(-c2ncccc2CO)ccc1OCC1CC1` [AC45], 100 to 150%; as for `O=C(NCc1cc2c(cc1Cl)OCO2)c1cc(-c2ncccc2CO)ccc1OCC1CC1` [AC46], 100 to 150%. As for `Cc1ccc(CNC(=O)c2cc(-c3ccccc3CO)cnc2OCC2CC2)cc1` [AC48], the figure is 100 to 150%; as for `O=C(NCc1ccc(C(F)(F)F)cc1)c1cc(-c2ccccc2CO)cnc1OCC1CC1` [AC49], 100 to 150%; as for `CC(C)(C)c1ccc(CNC(=O)c2cc(-c3ccccc3CO)cnc2OCC2CC2)cc1` [AC50], 100 to 150%. The result for `O=C(NCc1ccc(C(F)(F)F)cc1F)c1cc(-c2ccccc2CO)cnc1OCC1CC1` [AC51] reads 100 to 150%. Consider `O=C(NCc1ccc(Cl)cc1)c1cc(-c2ccccc2CO)cnc1OCC1CC1` [AC52], for which the activity at 20 µM is 100 to 150%.

`O=C(NCc1ccc(F)cc1)c1cc(-c2ccccc2CO)cnc1OCC1CC1` [AC53]: the activity at 20 µM lay within 100 to 150%.

For the compound `O=C(NCc1ccc(Cl)c(Cl)c1)c1cc(-c2ccccc2CO)cnc1OCC1CC1` [AC54], the activity at 20 µM was in the range of 150 to 250%. Consider `O=C(NCc1ccccc1)c1cc(-c2ccccc2CO)cnc1OCC1CC1` [AC55], for which the activity at 20 µM lay within 100 to 150%. With `CNCc1ccccc1-c1cnc(OCC2CC2)c(C(=O)NCc2ccc(OC)c(F)c2)c1` [AC70], the activity at 20 µM is 100 to 150%. Take `COc1ccc(CNC(=O)c2cc(-c3ccccc3OC)cnc2OCC2CC2)cc1F` [AC74]: the activity at 20 µM lay within 100 to 150%. As to `COc1ccc(CNC(=O)c2cc(-c3ccccc3C(=O)O)cnc2OCC2CC2)cc1F` [AC75], the activity at 20 µM lay in the range of 100 to 150%. As for `COc1ccc(CNC(=O)c2cc(-c3ccccc3CN(C)C)cnc2OCC2CC2)cc1F` [AC76], the figure is 100 to 150%. As for `COc1ccc(CNC(=O)c2cc(-c3ccccc3/C=C/C(C)=O)cnc2OCC2CC2)cc1F` [AC77], the figure is 100 to 150%; as for `COc1ccc(CNC(=O)c2cc(-c3ccccc3OC)ccc2OCC2CC2)cc1F` [AC78], 100 to 150%; as for `COc1ccc(CNC(=O)c2cc(-c3ccccc3C(=O)N(C)C)cnc2OCC2CC2)cc1F` [AC79], 100 to 150%.

For the compound `CCNC(=O)c1ccccc1-c1cnc(OCC2CC2)c(C(=O)NCc2ccc(OC)c(F)c2)c1` [AC80], the activity at 20 µM was 100 to 150%. For the compound `COc1ccc(CNC(=O)c2cc(-c3ccccc3CCC(C)=O)cnc2OCC2CC2)cc1F` [AC81], the activity at 20 µM lay in the range of 100 to 150%. Regarding `COc1ccc(CNC(=O)c2cc(-c3ccccc3O)ccc2OCC2CC2)cc1F` [AC82], the activity at 20 µM is 100 to 150%. As for `CNCc1ccccc1-c1ccc(OCC2CC2)c(C(=O)NCc2ccc(OC)c(F)c2)c1` [AC83], the figure is 150 to 250%.

With `CCNCc1ccccc1-c1ccc(OCC2CC2)c(C(=O)NCc2ccc(OC)c(F)c2)c1` [AC84], the activity at 20 µM was in the range of 150 to 250%. The result for `COc1ccc(CNC(=O)c2cc(-c3ccccc3C(=O)O)ccc2OCC2CC2)cc1F` [AC85] reads 100 to 150%; that for `COc1ccc(CNC(=O)c2cc(-c3ccccc3C(C)O)cnc2OCC2CC2)cc1F` (centres unmarked) [AC89], 100 to 150%; that for `COc1ccc(CNC(=O)c2cc(-c3ccccc3/C=N/O)cnc2OCC2CC2)cc1F` [AC90], 100 to 150%. As for `COc1ccc(CNC(=O)c2cc(-c3ccccc3C(N)=O)cnc2OCC2CC2)cc1F` [AC91], the figure is 100 to 150%. Consider `COc1ccc(CNC(=O)c2cc(-c3ccccc3CCO)cnc2OCC2CC2)cc1F` [AC92], for which the activity at 20 µM was in the range of 100 to 150%. The result for `COc1ccc(CNC(=O)c2cc(-c3cnccc3CO)ccc2O)cc1F` [AC93] reads 100 to 150%; that for `COc1ccc(CNC(=O)c2cc(-c3ncccc3CO)ccc2O)cc1F` [AC94], 100 to 150%. Consider `COc1ccc(CNC(=O)c2cc(-c3cnccc3CO)ccc2OC)cc1F` [AC95], for which the activity at 20 µM lay within 150 to 250%.

For `COc1ccc(CNC(=O)c2cc(-c3ncccc3CO)ccc2OC)cc1F` [AC96], the activity at 20 µM fell in the range of 150 to 250%. The result for `CCOc1ccc(-c2cnccc2CO)cc1C(=O)NCc1ccc(OC)c(F)c1` [AC97] reads 150 to 250%; that for `CCOc1ccc(-c2ncccc2CO)cc1C(=O)NCc1ccc(OC)c(F)c1` [AC98], 150 to 250%. `CCCOc1ccc(-c2cnccc2CO)cc1C(=O)NCc1ccc(OC)c(F)c1` [AC99]: the activity at 20 µM lay in the range of 150 to 250%.

Turning to `CCCOc1ccc(-c2ncccc2CO)cc1C(=O)NCc1ccc(OC)c(F)c1` [AC100], the activity at 20 µM lay in the range of 150 to 250%. On to `COc1ccc(CNC(=O)c2cc(-c3cnccc3CO)ccc2OC(C)C)cc1F` [AC101], for which the activity at 20 µM is over 250%. In the case of `COc1ccc(CNC(=O)c2cc(-c3ncccc3CO)ccc2OC(C)C)cc1F` [AC102], the activity at 20 µM is over 250%. On to `COc1ccc(CNC(=O)c2cc(-c3cnccc3CO)ccc2OC2CC2)cc1F` [AC103], for which the activity at 20 µM was 150 to 250%. As for `COc1ccc(CNC(=O)c2cc(-c3ncccc3CO)ccc2OC2CC2)cc1F` [AC104], the figure is 150 to 250%; as for `COc1ccc(CNC(=O)c2cc(-c3cnccc3CO)ccc2OC2CCC2)cc1F` [AC105], 150 to 250%; as for `COc1ccc(CNC(=O)c2cc(-c3ncccc3CO)ccc2OC2CCC2)cc1F` [AC106], 150 to 250%.

As to `COc1ccc(CNC(=O)c2cc(-c3cnccc3CO)ccc2OC2CCCC2)cc1F` [AC107], the activity at 20 µM is over 250%. As for `COc1ccc(CNC(=O)c2cc(-c3ncccc3CO)ccc2OC2CCCC2)cc1F` [AC108], the figure is over 250%; as for `COc1ccc(CNC(=O)c2cc(-c3cnccc3CO)ccc2OC2CCCCC2)cc1F` [AC109], over 250%.

Take `COc1ccc(CNC(=O)c2cc(-c3ncccc3CO)ccc2OC2CCCCC2)cc1F` [AC110]: the activity at 20 µM was over 250%. Turning to `COc1ccc(CNC(=O)c2cc(-c3cnccc3CO)ccc2OCC(C)C)cc1F` [AC111], the activity at 20 µM was over 250%. The result for `COc1c(F)cc(CNC(=O)c2cc(-c3ncccc3CO)ccc2OCC2CC2)cc1F` [AC145] reads 150 to 250%. Consider `COc1cc(F)c(CNC(=O)c2cc(-c3ncccc3CO)ccc2OCC2CC2)cc1F` [AC146], for which the activity at 20 µM is over 250%. Regarding `COc1c(F)cc(CNC(=O)c2cc(-c3ncccc3CO)ccc2OCC2CC2)cc1Cl` [AC147], the activity at 20 µM lay in the range of 150 to 250%. As for `COc1cc(OC)c(CNC(=O)c2cc(-c3ncccc3CO)ccc2OCC2CC2)cc1F` [AC148], the figure is 150 to 250%; as for `COc1ccc(CNC(=O)c2cc(-c3ncccc3CO)ccc2OCC2CC2)c(C)c1F` [AC150], 150 to 250%. Consider `[2H]C(O)c1cccnc1-c1ccc(OCC2CC2)c(C(=O)NCc2ccc(OC)c(F)c2)c1` (centres unmarked) [AC152], for which the activity at 20 µM is over 250%. On to `[2H]C([2H])([2H])Oc1ccc(CNC(=O)c2cc(-c3ncccc3CO)ccc2OCC2CC2)cc1F` [AC153], for which the activity at 20 µM was over 250%.
